Data as given in ChEMBL document CHEMBL1201862, “PubChem BioAssay data set” (2004).
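Test compounds were applied to cells in 96-well plates for 48 hours at 5 doses. At the GI50, growth is halved.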 Active and inactive are the calls of the source. No stated cut-off is given here; in the data, active = GI50 up to about 1.1 µM and inactive = higher. Peptide text beside a SMILES is read from it. * marks the point of attachment. Boc = CC(C)(C)OC(=O)*

What was measured:
Test in all cases: NCI tumour cell line growth inhibition, 48 h
[1] = tested on: UO-31
[2] = tested on: A498
[3] = tested on: HCT-15
[4] = tested on: EKVX
[5] = tested on: RXF 393
[6] = tested on: SN12C
[7] = tested on: UACC-257
[8] = tested on: HL-60
[9] = tested on: OVCAR-4
[10] = tested on: MOLT-4
[11] = tested on: ACHN
[12] = tested on: NCI-H522
[13] = tested on: SF-295
[14] = tested on: IGROV-1
[15] = tested on: NCI-H460
[16] = tested on: SK-MEL-2
[17] = tested on: SNB-75
[18] = tested on: OVCAR-8
[19] = tested on: M14
[20] = tested on: TK-10

SMILES	GI50 [1]	GI50 [2]	GI50 [3]	GI50 [4]	GI50 [5]	GI50 [6]	GI50 [7]	GI50 [8]	GI50 [9]	GI50 [10]	GI50 [11]	GI50 [12]	GI50 [13]	GI50 [14]	GI50 [15]	GI50 [16]	GI50 [17]	GI50 [18]	GI50 [19]	GI50 [20]
O=C(NCCCl)Nc1ccccc1	> 100 µM (inactive)	> 100 µM (inactive)	> 100 µM	> 100 µM (inactive)	> 100 µM (inactive)	> 100 µM (inactive)	> 100 µM (inactive)	> 100 µM (inactive)	> 100 µM (inactive)	> 100 µM (inactive)	> 100 µM (inactive)	> 100 µM (inactive)	> 100 µM (inactive)	> 100 µM (inactive)	> 100 µM (inactive)	> 100 µM (inactive)	> 100 µM (inactive)	> 100 µM (inactive)	–	–
O=C1c2cc3c(cc2CC12Cc1ccc4c(c1C2=O)CCCC4)CCCC3 (stereo not given)	> 100 µM (inactive)	21.4 µM (inactive)	> 100 µM	> 100 µM (inactive)	42 µM (inactive)	–	> 100 µM (inactive)	> 100 µM (inactive)	25.9 µM (inactive)	> 100 µM (inactive)	48.1 µM (inactive)	85.7 µM (inactive)	92.5 µM (inactive)	80.7 µM (inactive)	97.9 µM (inactive)	45.6 µM (inactive)	69.8 µM (inactive)	67 µM (inactive)	> 100 µM (inactive)	> 100 µM (inactive)
Cc1c2oc3c(C)cnc(C(=O)NC4C(=O)NC(C(C)C)C(=O)N5CCCC5C(=O)N(C)CC(=O)N(C)C(C(C)C)C(=O)OC4C)c3nc-2c(C(=O)NC2C(=O)NC(C(C)C)C(=O)N3CCCC3C(=O)N(C)CC(=O)N(C)C(C(C)C)C(=O)OC2C)c(N)c1=O (stereo not given)	14.2 µM (inactive)	6.18 µM (inactive)	21 µM	15.4 µM (inactive)	1.12 µM (active)	1.36 µM (inactive)	4.58 µM (inactive)	0.769 µM (active)	10.8 µM (inactive)	0.138 µM (active)	5.48 µM (inactive)	0.673 µM (active)	5.45 µM (inactive)	0.687 µM (active)	1.03 µM (active)	0.431 µM (active)	6.41 µM (inactive)	5.57 µM (inactive)	3.4 µM (inactive)	22.9 µM (inactive)
C=C1[C@@H]2CCC(C)(C)[C@H]1CCC(=O)[C@@H]2C(=O)OC	> 100 µM (inactive)	> 100 µM (inactive)	> 100 µM	> 100 µM (inactive)	> 100 µM (inactive)	> 100 µM (inactive)	> 100 µM (inactive)	> 100 µM (inactive)	> 100 µM (inactive)	> 100 µM (inactive)	> 100 µM (inactive)	–	> 100 µM (inactive)	> 100 µM (inactive)	> 100 µM (inactive)	> 100 µM (inactive)	–	> 100 µM (inactive)	> 100 µM (inactive)	> 100 µM (inactive)
Cc1cccc2c1C(=O)[C@](C)([C@]1(C)Nc3cccc(C)c3C1=O)N2	18.1 µM (inactive)	60.5 µM (inactive)	18.2 µM	23.7 µM (inactive)	54.1 µM (inactive)	29.6 µM (inactive)	30.8 µM (inactive)	< 0.01 µM (active)	47.6 µM (inactive)	23.3 µM (inactive)	43.9 µM (inactive)	28.6 µM (inactive)	20.8 µM (inactive)	33.5 µM (inactive)	31 µM (inactive)	24 µM (inactive)	11 µM (inactive)	24 µM (inactive)	33.9 µM (inactive)	–
Cc1cccc2c1CC1(Cc3c(C)cccc3C1=O)C2=O	> 100 µM (inactive)	> 100 µM (inactive)	> 100 µM	> 100 µM (inactive)	> 100 µM (inactive)	–	> 100 µM (inactive)	> 100 µM (inactive)	> 100 µM (inactive)	> 100 µM (inactive)	> 100 µM (inactive)	> 100 µM (inactive)	> 100 µM (inactive)	> 100 µM (inactive)	> 100 µM (inactive)	> 100 µM (inactive)	> 100 µM (inactive)	> 100 µM (inactive)	> 100 µM (inactive)	> 100 µM (inactive)
FC(F)(F)c1ccc(Cc2nc3cc4ccccc4cc3[nH]2)cc1	58.5 µM (inactive)	> 100 µM (inactive)	> 100 µM	> 100 µM (inactive)	51.6 µM (inactive)	> 100 µM (inactive)	> 100 µM (inactive)	93.1 µM (inactive)	31.5 µM (inactive)	–	49 µM (inactive)	26.7 µM (inactive)	> 100 µM (inactive)	16 µM (inactive)	> 100 µM (inactive)	> 100 µM (inactive)	3.78 µM (inactive)	> 100 µM (inactive)	> 100 µM (inactive)	> 100 µM (inactive)
Cc1cc(Cl)ccc1NC(=O)C1C(=O)N(c2ccc(Cl)cc2C)C(=O)/C1=N\NC(N)=S (stereo not given)	17 µM (inactive)	23.6 µM (inactive)	17.1 µM	22.6 µM (inactive)	16 µM (inactive)	27.4 µM (inactive)	59 µM (inactive)	20.1 µM (inactive)	18.5 µM (inactive)	19.2 µM (inactive)	36.2 µM (inactive)	17.1 µM (inactive)	29.9 µM (inactive)	–	31.6 µM (inactive)	–	–	41.9 µM (inactive)	28.2 µM (inactive)	47.9 µM (inactive)
C=CC(Br)(CBr)CCC1OC1(C)C (stereo not given)	18.2 µM (inactive)	21.7 µM (inactive)	–	20.3 µM (inactive)	9.23 µM (inactive)	16.6 µM (inactive)	14.6 µM (inactive)	23.1 µM (inactive)	16.3 µM (inactive)	16.7 µM (inactive)	18.2 µM (inactive)	17.2 µM (inactive)	16.4 µM (inactive)	13.2 µM (inactive)	14.2 µM (inactive)	15.1 µM (inactive)	17.2 µM (inactive)	–	13.9 µM (inactive)	20.2 µM (inactive)
CC(=O)NC1=C(N)C(=O)c2ccccc2C1=O	> 100 µM (inactive)	> 100 µM (inactive)	47.6 µM	> 100 µM (inactive)	46.9 µM (inactive)	54.7 µM (inactive)	> 100 µM (inactive)	27.1 µM (inactive)	–	> 100 µM (inactive)	> 100 µM (inactive)	79.4 µM (inactive)	> 100 µM (inactive)	> 100 µM (inactive)	20 µM (inactive)	90.6 µM (inactive)	> 100 µM (inactive)	> 100 µM (inactive)	43.6 µM (inactive)	> 100 µM (inactive)
CCN(CCCl)c1cc(CN(C)C)cc(NC(=O)c2ccc(C(=O)Nc3cccc(N(CCCl)NN)c3)cc2)c1	0.462 µM (active)	0.197 µM (active)	0.455 µM	–	0.0285 µM (active)	0.0332 µM (active)	0.174 µM (active)	< 0.01 µM (active)	0.0136 µM (active)	< 0.01 µM (active)	< 0.01 µM (active)	< 0.01 µM (active)	0.0428 µM (active)	0.0225 µM (active)	< 0.01 µM (active)	0.0521 µM (active)	0.0336 µM (active)	0.0246 µM (active)	0.0224 µM (active)	0.296 µM (active)
N#C[BH2-][n+]1cn(C2CC(O)C(COP(=O)(O)OC3CC(n4c[n+]([BH2-]C#N)c5c(=O)[nH]c(N)nc54)OC3CO)O2)c2nc(N)[nH]c(=O)c21 (stereo not given)	> 100 µM (inactive)	> 100 µM (inactive)	> 100 µM	> 100 µM (inactive)	> 100 µM (inactive)	> 100 µM (inactive)	–	> 100 µM (inactive)	> 100 µM (inactive)	> 100 µM (inactive)	> 100 µM (inactive)	> 100 µM (inactive)	> 100 µM (inactive)	> 100 µM (inactive)	> 100 µM (inactive)	> 100 µM (inactive)	> 100 µM (inactive)	> 100 µM (inactive)	> 100 µM (inactive)	–
CC1=NN(C(=O)c2ccccc2O)C(=O)/C1=C/c1cccc(O)c1	0.178 µM (active)	0.0443 µM (active)	1.46 µM	2.77 µM (inactive)	0.161 µM (active)	45.9 µM (inactive)	1.21 µM (inactive)	2.9 µM (inactive)	2.27 µM (inactive)	–	0.188 µM (active)	1.22 µM (inactive)	0.671 µM (active)	0.198 µM (active)	0.774 µM (active)	0.968 µM (active)	0.258 µM (active)	0.571 µM (active)	0.446 µM (active)	4.76 µM (inactive)
CC(NC(=O)OC(C)(C)C)C(=O)NC(Cc1ccccc1)C(=O)NCC(=O)O (stereo not drawn) (Boc-Ala-Phe-Gly-OH; configuration not given here)	> 100 µM (inactive)	> 100 µM (inactive)	> 100 µM	> 100 µM (inactive)	> 100 µM (inactive)	> 100 µM (inactive)	> 100 µM (inactive)	> 100 µM (inactive)	–	> 100 µM (inactive)	> 100 µM (inactive)	> 100 µM (inactive)	> 100 µM (inactive)	> 100 µM (inactive)	> 100 µM (inactive)	> 100 µM (inactive)	> 100 µM (inactive)	> 100 µM (inactive)	> 100 µM (inactive)	> 100 µM (inactive)
Cc1cc2cc3c(C)cc(=O)oc3c(C)c2o1 [TRIOXSALEN]	> 100 µM (inactive)	> 100 µM (inactive)	> 100 µM	90.6 µM (inactive)	> 100 µM (inactive)	> 100 µM (inactive)	> 100 µM (inactive)	> 100 µM (inactive)	> 100 µM (inactive)	> 100 µM (inactive)	> 100 µM (inactive)	> 100 µM (inactive)	> 100 µM (inactive)	> 100 µM (inactive)	> 100 µM (inactive)	> 100 µM (inactive)	> 100 µM (inactive)	> 100 µM (inactive)	> 100 µM (inactive)	–
